Common to all, as to test: drug sensitivity score (DSS) (DSS score); higher = more sensitive (stronger growth inhibition); extreme values may be limits of the assay
Test [1] concerns Ba/F3 P210-BCR-ABL1 RUNX1-/- (mouse). In outline:
(§1)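 Mouse Ba/F3 cells, either CRISPR/Cas9-edited at a target exon or edited-control clones, were screened against a 528-compound library on pre-printed 384-well plates. Each compound was tested at five concentrations across a 10,000-fold range, with 10,000 cells per well in RPMI with 10% FBS for 72 h at 37 °C and 5% CO2. CellTiter-Glo luminescence was scaled between vehicle and positive-control wells, and each dose-response was summarised as a drug sensitivity score. Scores were averaged over two replicates.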

The subject of test [2] is Ba/F3 P210-BCR-ABL1 RUNX1-/mut (mouse). In outline:
as §1

Test [3] relates to Ba/F3 P210-BCR-ABL1 RUNX1wt/wt control (mouse). In outline: as §1

Among the data in the supplement of paper PMC8024199 are drug sensitivity score values, retold here.

The structures appear in SMILES notation. ± gives the standard deviation of the averaged measurements.

Regarding `C=CC(=O)Nc1cccc(Nc2nc(Nc3ccc(OCCOC)cc3)ncc2F)c1` [Spebrutinib], the drug sensitivity score in test [1], in test [2] and in test [3] was 0 throughout.
`COc1cc(N2CCC(N3CCN(C)CC3)CC2)ccc1Nc1ncc(Cl)c(Nc2ccccc2P(C)(C)=O)n1` [Brigatinib]: the drug sensitivity score in test [1] came out at 4.95 ± 0.35; in test [2] it was 2.55 ± 3.6; in test [3], 0.1 ± 0.14.
Consider `CNC(=O)c1ccc2cc([C@@]3(O)CCn4cncc43)ccc2c1` [Orteronel], for which the drug sensitivity score in test [1], in test [2] and in test [3] was 0 in each case.
Turning to `CCNC(=O)C[C@@H]1N=C(c2ccc(Cl)cc2)c2cc(OC)ccc2-n2c(C)nnc21` [Molibresib], the values for the drug sensitivity score in test [1], in test [2] and in test [3] were 18.4 ± 1.6, 18.1 ± 2 and 12.1 ± 0.14, respectively.
Turning to `CC(=O)O[C@]1(C(C)=O)CC[C@H]2[C@@H]3C=C(C)C4=CC(=O)CC[C@]4(C)[C@H]3CC[C@@]21C` [Megestrol acetate], the drug sensitivity score in test [1] came to 0.1 ± 0.14; in test [2], 0.15 ± 0.21; in test [3], 0.
On to `CC(C)n1cnc2c(NCCc3ccc(O)cc3)nc(-c3csc4ccccc34)nc21` [StemRegenin 1], for which the results for the drug sensitivity score in test [1], in test [2] and in test [3] were 3.45 ± 2.9, 3.05 ± 3.9 and 0.8 ± 0.28, respectively.
The like results for `FC(F)c1nc2ccccc2n1-c1nc(N2CCOCC2)nc(N2CCOCC2)n1` [ZSTK474] were, in that order, 9.85 ± 2.6, 9.75 ± 5.9 and 5.3 ± 0.85.
The like results for `CC[C@@H]1[C@H](F)C(=O)N[C@@H]1COc1nccc2cc(C(N)=O)c(OC)cc12` were, in that order, 1.3 ± 0.42, 0.9 ± 1.3 and 0.25 ± 0.35.
As to `Nc1nccc(-c2c(-c3ccc(F)cc3)ncn2C2CCCCC2)n1`, the results for the drug sensitivity score in test [1], in test [2] and in test [3] were 0.05 ± 0.071, 0 and 0, respectively.
In the case of `O=C(NOCCO)c1ccc2cncn2c1Nc1ccc(I)cc1F` [GDC-0623], the drug sensitivity score in test [1] amounted to 10.8 ± 8.1; in test [2] it was 3.7 ± 3.7; in test [3], 0.55 ± 0.78.
In the case of `CN(CC(=O)N(Cc1ccc(C2CCCCC2)cc1)c1ccc(C(=O)O)cc1)S(=O)(=O)c1c(F)c(F)c(F)c(F)c1F` [SH-4-54], the drug sensitivity score in test [1] stood at 8.95 ± 1.1; in test [2] it was 8.35 ± 5.2; in test [3], 5.1 ± 0.14.
As to `C[C@H]1Oc2cc(cnc2N)-c2c(nn(C)c2C#N)CN(C)C(=O)c2ccc(F)cc21`, the drug sensitivity score in test [1] came to 0.5 ± 0.71; in test [2] it was 2.2 ± 3.1; in test [3], 0.
In the case of `N#CC(c1ccnc(OCc2ccc(CN3CCOCC3)cc2)n1)c1nc2ccccc2s1` (stereo not drawn) [Bentamapimod], the drug sensitivity score worked out at 2.55 ± 1.6 in test [1], 0.75 ± 1.1 in test [2] and 4.25 ± 0.49 in test [3].
In the case of `O=C(Nc1cnn2ccc(N3CCC[C@@H]3c3cc(F)ccc3F)nc12)N1CC[C@H](O)C1` [Larotrectinib], the drug sensitivity score in test [1] is 0; in test [2] it was 0.05 ± 0.071; in test [3] it was 0.7 ± 0.71.
Consider `CNC(=O)c1ccccc1Nc1cc(Nc2ccc(N3CCOCC3)cc2OC)ncc1C(F)(F)F` [VS-4718], for which the drug sensitivity score was 8.65 ± 0.49 in test [1], 7.65 ± 1.1 in test [2] and 4.2 ± 0.28 in test [3].
Turning to `C[C@@H](Oc1ccc2[nH]nc(/C=C/c3cnn(CCO)c3)c2c1)c1c(Cl)cncc1Cl`, the figures for the drug sensitivity score in test [1], in test [2] and in test [3] were 14.5 ± 3.5, 8.95 ± 1.5 and 6.65 ± 0.21, respectively.
On to `COc1cc2ncnc(Nc3cccc(Cl)c3F)c2cc1OC(=O)N1CCN(C)C[C@H]1C` [AZD3759], for which the drug sensitivity score in test [1], in test [2] and in test [3] was 0 throughout.
For `Cc1ccc(F)c(NC(=O)Nc2ccc(-c3cccc4[nH]nc(N)c34)cc2)c1` [Linifanib], the drug sensitivity score in test [1] worked out at 1.1 ± 1.6; in test [2], 0.1 ± 0.14; in test [3], 0.1 ± 0.14.
Turning to `O=C(O)CNC(=O)c1c(O)c2ccccc2n(Cc2ccccc2)c1=O` [IOX-2], the figures for the drug sensitivity score in test [1], in test [2] and in test [3] were 0, 0.3 ± 0.42 and 0, respectively.
For the compound `C=CC(=O)Nc1cccc(Nc2nc(Nc3ccc(N4CCN(C(C)=O)CC4)cc3OC)ncc2C(F)(F)F)c1` [Rociletinib], the drug sensitivity score in test [1] is 8.6 ± 1.6; in test [2] it was 7.45 ± 0.071; in test [3], 4.4 ± 0.42.
For `CC(=O)c1cc2c(o1)C(=O)c1ccccc1C2=O` [Napabucasin], the drug sensitivity score in test [1] is 17.4 ± 0.14; in test [2], 19.4 ± 3; in test [3], 11.1 ± 2.5.
As for `O=C1CCc2c(Oc3ccc4c(c3)[C@@H]3[C@H](O4)[C@H]3c3nc4cc(C(F)(F)F)ccc4[nH]3)ccnc2N1` [BGB-283], the drug sensitivity score turned out to be 21.8 ± 0.64 in test [1], 16.9 in test [2] and 16 ± 0.14 in test [3].
Consider `CCc1cnn2c(NCc3ccc[n+]([O-])c3)cc(N3CCCC[C@H]3CCO)nc12` [Dinaciclib], for which the drug sensitivity score in test [1] came to 19.6 ± 2.3; in test [2] it was 19.9 ± 0.35; in test [3], 18.6 ± 0.78.
As to `CN1CCC(COc2cnc(-c3cccc(Cn4nc(-c5cccc(C#N)c5)ccc4=O)c3)nc2)CC1` [Tepotinib], the drug sensitivity score in test [1] was found to be 2.8 ± 1.3; in test [2], 2.5 ± 3.5; in test [3], 0.
In the case of `CCCN(CCC)C(=O)C1=Cc2ccc(-c3ccc(C(=O)N4CCCC4)cc3)cc2N=C(N)C1` [Motolimod], the figures for the drug sensitivity score in test [1], in test [2] and in test [3] were 1.45 ± 0.35, 1 ± 1.1 and 0, respectively.
Turning to `CN1CCN(C(=O)c2ccc3cc(CCNc4ncnc5ccc(C#N)cc45)ccc3c2)CC1` [Senexin B], the drug sensitivity score in test [1] turned out to be 0.8; in test [2], 1.1 ± 1.6; in test [3], 0.15 ± 0.21.
In the case of `Cn1cc(CNCC2CCN(c3ncc(C(=O)NO)cn3)CC2)c2ccccc21` [Quisinostat], the figures for the drug sensitivity score in test [1], in test [2] and in test [3] were 21.6 ± 1.3, 17.95 ± 0.071 and 15.3 ± 0.28, respectively.
For `CCCCc1nc2cc(/C=C/C(=O)NO)ccc2n1CCN(CC)CC` [Pracinostat] the same measures were 20.7 ± 0.57, 19.4 ± 0.35 and 17.4 ± 0.49.
With `CCc1nc(C(N)=O)c(Nc2ccc(N3CCC(N4CCN(C)CC4)CC3)c(OC)c2)nc1NC1CCOCC1` [Gilteritinib], the drug sensitivity score in test [1] is 6.2 ± 2; in test [2], 8.4 ± 2.5; in test [3], 3.25 ± 0.78.
Take `CNC(=O)c1cc(COc2nnc(Nc3ccc(Cl)cc3)c3ccoc23)ccn1` [Telatinib]: the drug sensitivity score in test [1] was determined as 0.1 ± 0.14; in test [2], 0; in test [3], 0.
As to `CC(C)n1nc(-c2ccc3oc(N)nc3c2)c2c(N)ncnc21` [Sapanisertib], the drug sensitivity score amounted to 16.9 ± 0.35 in test [1], 16.6 ± 2.5 in test [2] and 11.3 ± 0.49 in test [3].
